From US20100292231A1, “Indazole Compounds for Treating Inflammatory Disorders, Demyelinating Disorders and Cancers” (priority 2007, published 2010)

Test system: Mda231 cells
Experiment: BME cell invasion assay (Boyden chamber principle)
Assay type: cell-based
Conditions: 24 hours
Description: Representative compounds were tested for their ability to inhibit invasion of Mda231 cells. Invasive cells are a mark of metastatic tumors. The in vitro invasion assay is based on the Boyden chamber assay principle.
The 96-well BME cell invasion assay kit was used according to the manufacturers' protocol (Culturex™ catalog number: 3455-096-K). Prior to assay cells were serum starved for 18 hrs and the membrane of the top invasion chamber was coated with 50 μl of 0.83× BME solution and incubated overnight at 37° C./5% CO2. The next day cells were harvested and 40.000 cells/well in 50 μl medium without serum were plated to top chamber. 150 μl of medium with serum was added to bottom chamber. Compounds were added and cells were incubated for 24 hrs at 37° C./5% CO2. The remaining cells were assayed for standard curve.
After 24 hours, the bottom chamber was aspirated and washed twice with 200 μl wash buffer. The bottom chamber was transferred to a black assay plate. Cells migrated through the membrane are stained with Calcein-AM and measured with fluorescence spectrophotometry; 150 μl Calcein-AM/Cell dissociation solution was added and incubated at 37° C./5% CO2. After 1 hour, the plate was read at 485 nm excitation, 520 nm emission. Using standard curve, the fluorescence signal measured was converted to cell number and percent invasion was determined.

Structure (SMILES) | inhibition of cell invasion
CN1CCN(CCCNc2ccc3ncn4c5ccc6[nH]ncc6c5c(=O)c2c34)CC1 [(XVII)] | slightly more effective than Symadex
CCN(CC)CCCNc1ccc2ncn3c4ccc5[nH]ncc5c4c(=O)c1c23 [Compound (XV)] | slightly more effective than Symadex
